Consider six compounds from patent US20090143285A1, “TARGET PROTEIN AND TARGET GENE FOR DRUG DISCOVERY AND SCREENING METHOD” (REVERSE PROTEOMICS RESEARCH INSTITUTE CO., LTD., priority 2005, published 2009).

One assay addresses T1, FLJ38897-derived protein (Homo sapiens, UniProt P57764).
T1 construct: His-tag (N); made in house; host or cells: Escherichia coli BL21star(DE3)pLysS
T1 sequence (P57764 265-484): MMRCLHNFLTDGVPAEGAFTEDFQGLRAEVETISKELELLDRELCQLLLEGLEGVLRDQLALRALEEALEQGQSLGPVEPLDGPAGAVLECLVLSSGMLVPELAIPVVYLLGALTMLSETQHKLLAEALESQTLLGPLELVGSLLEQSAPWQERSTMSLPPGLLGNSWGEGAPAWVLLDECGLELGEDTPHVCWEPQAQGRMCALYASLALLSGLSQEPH
Briefly: SEC/MS interaction analysis, FLJ38897-derived protein (GSDMDC1). The format is binding. Conditions: spin column method; mixture with protein vs buffer solution alone; data not shown. The source says:
(§1) To analyze the interactions between commonly used drugs and proteins expressed from human full-length cDNA clones while keeping both the proteins and the compounds in non-modified, non-immobilized state, size exclusion chromatography (SEC) and mass analysis were used in combination. The specific procedures are shown below.
(§2) The compound-protein mixture prepared in step 1 was subjected to chromatography using an SEC column, the compound and the protein were separated by SEC, and the compound that interacted with the bound compound or protein contained in the protein fraction was analyzed using a mass analyzer.
(§3) Protein concentrations were measured using BCA Protein Assay (PIERCE), in consideration of the purity calculated by SDS-PAGE.
(§4) Mass analysis was performed using LCQ DECA XP (Thermoelectron) or Q-TOF micro (Micromass), equipped with an ESI probe. The LC pump used was Agilent 1100 (Yokogawa Analytical Systems), and the autosampler used was HTC-PAL (CTC Analytics) equipped with a cooling stacker. The SEC column used was a micro-LC column or a 384-well spin column. […]
(§5) In the 384-well spin column method, Unifilter 100 (Whatman), packed with 10 μL (dry volume) of Bio-Gel P6 (BIO-RAD) and swollen with milliQ water, was used as the SEC column. […] The SEC spin column was mounted on an acetonitrile-aliquoted 384-well U-bottom plate and centrifuged; the SEC spin column filtrate, which is a protein fraction, was recovered in 50% acetonitrile. The protein precipitate produced by the acetonitrile was removed via centrifugation and filtration for deproteinization; the resulting filtrate was concentrated by centrifugal concentration and re-dissolved in 10 μL of 50% methanol to obtain a mass analysis sample. The mobile phase supplied to the mass analyzer was 0.1% formic acid/50% methanol solution in the positive ion mode, and 0.1% ammonia/50% methanol solution in the negative ion mode; these mobile phases were used at a flow rate of 40 μL/min. 2-μL of mass analysis samples were injected using an autosampler at 2-minute intervals; the mass spectral intensity of the compound was measured to retrieve the spectral intensity of the pharmaceutical compound contained in the SEC spin column filtrate (protein fraction eluted from SEC).

The next assay has as its target T2, FLJ41991-derived protein (Homo sapiens, UniProt P57764, E293G).
T2 construct: His-tag (N); made in house; host or cells: Escherichia coli BL21star(DE3)pLysS (pDEST17)
T2 sequence (P57764 265-484 E293G): T1 sequence (P57764 265-484) with E29G
In words: SEC/MS interaction analysis, FLJ41991-derived protein (GSDMDC1). The format is binding. Conditions: for interaction judged from spectrum intensity of the compound in the SEC spin column filtrate (protein fraction eluted from SEC): spin column method, doses of both compound and protein varied.
Excerpt: as §1, §2, §3, §4, §5

Assay [1] has as its system FLJXXXXX-derived proteins. Briefly: SEC/MS spin column interaction analysis of FLJXXXXX-derived proteins and various compounds (Tables 30-1 to 30-4). The format is binding, human.
The mark [2] stands for this setting: compound 12.5 μM, protein 10 μM.
Setting [3] is: compound 62.5 μM, protein 10 μM.
[4] abbreviates: compound 62.5 μM, protein 25 μM.
[5] abbreviates: SEC spin column filtrate, spectral intensity increased with doses of compound and protein.
[6] abbreviates: compound 12.5 μM, protein 25 μM.

Each structure is given as a SMILES string. Substitutions are numbered along the chain they refer to. “Also recorded” adds a separate entry of the source. Where two headings read alike, the source gives them in different places.

As to `O=C(c1ccc(OCCN2CCCCC2)cc1)c1c(-c2ccc(O)cc2)sc2cc(O)ccc12` [raloxifene], the “interaction judged from mass spectrum peak intensity of the compound in the spin column filtrate” value (“interaction judged … in the spin column filtrate” below) at FLJ38897-derived protein is given as “there was an interaction”. Also, the “spectrum intensity of the compound in the SEC spin column filtrate” value is given as 19251 at FLJ41991-derived protein (compound 12.5 μM, protein 0 μM); 32265 on FLJ41991-derived protein (compound 12.5 μM, protein 5 μM); 67187 on FLJ41991-derived protein (setting [2]); 37961 on FLJ41991-derived protein (compound 25 μM, protein 0 μM); 52442 on FLJ41991-derived protein (compound 25 μM, protein 5 μM); 119306 on FLJ41991-derived protein (compound 25 μM, protein 10 μM). The “spectrum intensity of the compound in the SEC spin column filtrate” value at FLJ41991-derived protein (compound 25 μM, protein 25 μM) was 1312562; at FLJ41991-derived protein (compound 62.5 μM, protein 0 μM) it was 58164; at FLJ41991-derived protein (compound 62.5 μM, protein 5 μM) it was 153267; on FLJ41991-derived protein (setting [3]) it was 1091123; on FLJ41991-derived protein (setting [4]) it was 3195671. At FLJ41991-derived protein, the “interaction judged from spectrum intensity of the compound in the SEC spin column filtrate (protein fraction eluted from SEC)” value is “concentration-dependent interaction”. The “FLJ No of the derived protein with which the compound was judged to exhibit a concentration-dependent interaction” value (“FLJ No of the derived protein” for short) in assay [1] (setting [5]) is recorded as “FLJ37909; also recorded: FLJ38897; also recorded: FLJ41991”.

Consider `CN1[C@@H]2CC[C@H]1C[C@@H](OC(c1ccccc1)c1ccccc1)C2` [benztropine], for which the “interaction judged … in the spin column filtrate” value at FLJ38897-derived protein is listed as “there was an interaction”. The “spectrum intensity of the compound in the SEC spin column filtrate” value on FLJ41991-derived protein (compound 12.5 μM, protein 0 μM) turned out to be 143943; on FLJ41991-derived protein (compound 12.5 μM, protein 5 μM), 220928; at FLJ41991-derived protein (setting [2]), 285013; at FLJ41991-derived protein (setting [6]) it was 489071; on FLJ41991-derived protein (compound 25 μM, protein 0 μM), 152947; at FLJ41991-derived protein (compound 25 μM, protein 5 μM), 491863. Besides, the “spectrum intensity of the compound in the SEC spin column filtrate” value at FLJ41991-derived protein (compound 25 μM, protein 10 μM) was 560686; at FLJ41991-derived protein (compound 25 μM, protein 25 μM), 1352077; at FLJ41991-derived protein (compound 62.5 μM, protein 0 μM) it was 911727; on FLJ41991-derived protein (compound 62.5 μM, protein 5 μM) it was 1861766; on FLJ41991-derived protein (setting [3]), 2757526; on FLJ41991-derived protein (setting [4]), 3061987. In addition, on FLJ41991-derived protein, the “interaction judged from spectrum intensity of the compound in the SEC spin column filtrate (protein fraction eluted from SEC)” value is on record as “concentration-dependent interaction”. Besides, in assay [1] (setting [5]), the “FLJ No of the derived protein” value is recorded as “FLJ38897; also recorded: FLJ41991”.

Turning to `C1CCC(C(CC2CCCCN2)C2CCCCC2)CC1` (stereo not shown) [perhexyline], the “interaction judged … in the spin column filtrate” value on FLJ38897-derived protein is given as “there was an interaction”. In assay [1] (SEC spin column filtrate, spectral intensity increased with doses of compound and protein, listed as perhexiline), the “FLJ No of the derived protein” value is recorded as “FLJ37909; also recorded: FLJ38897”.

As for `COc1ccc(CCN2CCC(Nc3nc4ccccc4n3Cc3ccc(F)cc3)CC2)cc1` [astemizole], at FLJ38897-derived protein, the “interaction judged … in the spin column filtrate” value is “there was an interaction”. Also, the “spectrum intensity of the compound in the SEC spin column filtrate” value on FLJ41991-derived protein (compound 12.5 μM, protein 0 μM) was 24899; at FLJ41991-derived protein (compound 12.5 μM, protein 5 μM), 60014; on FLJ41991-derived protein (setting [2]) it was 160855; at FLJ41991-derived protein (setting [6]), 908771; at FLJ41991-derived protein (compound 25 μM, protein 0 μM), 19274; on FLJ41991-derived protein (compound 25 μM, protein 5 μM), 89714. Also, the “spectrum intensity of the compound in the SEC spin column filtrate” value on FLJ41991-derived protein (compound 25 μM, protein 10 μM) came to 732296; on FLJ41991-derived protein (compound 25 μM, protein 25 μM), 2056843; at FLJ41991-derived protein (compound 62.5 μM, protein 0 μM), 27212; on FLJ41991-derived protein (compound 62.5 μM, protein 5 μM) it was 361364; at FLJ41991-derived protein (setting [3]) it was 2309029; on FLJ41991-derived protein (setting [4]), 5171023. The “interaction judged from spectrum intensity of the compound in the SEC spin column filtrate (protein fraction eluted from SEC)” value at FLJ41991-derived protein is on record as “concentration-dependent interaction”. The “FLJ No of the derived protein” value in assay [1] (setting [5]) is listed as “FLJ38897; also recorded: FLJ41991”.

Regarding `CN(C)C(=O)C(CCN1CCC(O)(c2ccc(Cl)cc2)CC1)(c1ccccc1)c1ccccc1` [loperamide], at FLJ38897-derived protein, the “interaction judged … in the spin column filtrate” value was “there was an interaction”. Further, the “spectrum intensity of the compound in the SEC spin column filtrate” value on FLJ41991-derived protein (compound 12.5 μM, protein 0 μM) is reported as 75412; at FLJ41991-derived protein (compound 12.5 μM, protein 5 μM) it was 200285; on FLJ41991-derived protein (setting [2]), 950587; at FLJ41991-derived protein (setting [6]), 1688197; on FLJ41991-derived protein (compound 25 μM, protein 0 μM), 263744; at FLJ41991-derived protein (compound 25 μM, protein 5 μM) it was 863800. Moreover, the “spectrum intensity of the compound in the SEC spin column filtrate” value turned out to be 1856141 at FLJ41991-derived protein (compound 25 μM, protein 10 μM); 4462655 at FLJ41991-derived protein (compound 25 μM, protein 25 μM); 1579322 at FLJ41991-derived protein (compound 62.5 μM, protein 0 μM); 3520629 on FLJ41991-derived protein (compound 62.5 μM, protein 5 μM); 6073080 at FLJ41991-derived protein (setting [3]); 9496680 on FLJ41991-derived protein (setting [4]). Moreover, the “interaction judged from spectrum intensity of the compound in the SEC spin column filtrate (protein fraction eluted from SEC)” value on FLJ41991-derived protein was “concentration-dependent interaction”. Besides, the “FLJ No of the derived protein” value in assay [1] is listed as “FLJ41991; also recorded: FLJ38897”.

On to `CN(C)CC/C=C1/c2ccccc2Sc2ccc(Cl)cc21` [chlorprothixene], for which the “interaction judged … in the spin column filtrate” value at FLJ38897-derived protein is “there was an interaction”. The “spectrum intensity of the compound in the SEC spin column filtrate” value at FLJ41991-derived protein (compound 12.5 μM, protein 0 μM) is 178622; at FLJ41991-derived protein (compound 12.5 μM, protein 5 μM) it was 175333; on FLJ41991-derived protein (setting [2]) it was 226245; on FLJ41991-derived protein (setting [6]) it was 393132; on FLJ41991-derived protein (compound 25 μM, protein 0 μM), 161141; on FLJ41991-derived protein (compound 25 μM, protein 5 μM) it was 149738. The “spectrum intensity of the compound in the SEC spin column filtrate” value was 277798 on FLJ41991-derived protein (compound 25 μM, protein 10 μM); 490640 on FLJ41991-derived protein (compound 25 μM, protein 25 μM); 156021 on FLJ41991-derived protein (compound 62.5 μM, protein 0 μM); 210998 on FLJ41991-derived protein (compound 62.5 μM, protein 5 μM); 626223 on FLJ41991-derived protein (setting [3]); 2564975 at FLJ41991-derived protein (setting [4]). Further, the “interaction judged from spectrum intensity of the compound in the SEC spin column filtrate (protein fraction eluted from SEC)” value on FLJ41991-derived protein is given as “concentration-dependent interaction”. Moreover, the “FLJ No of the derived protein” value in assay [1] (setting [5]) is reported as “FLJ38897; also recorded: FLJ41991”.
